The source of these data is publication PMC6270258, “Diosgenone Synthesis, Anti-Malarial Activity and QSAR of Analogues of This Natural Product” (Molecules, 2013).

Structures are written as SMILES. Read-outs that look alike come from different tables or passages of the source.

In series [1] the test system is Plasmodium falciparum FCB-2 (chloroquine-resistant) strain. On the set-up: method as in doi:10.1016/S0040-4020(98)00632-2, PMID 11807967. To be noted: reported earlier; cited from earlier work.
In series [2] the test system is Plasmodium falciparum NF-54 strain. In words: In vitro antiplasmodial activity, [3H]hypoxanthine incorporation, NF-54 strain. Type of series: cell-based. Conditions: 48 h, read-out: IC50 μM ± SD NF-54.
Method: (§1) A 10 mg/mL stock solution was prepared. […] A 50 μL sample was extracted from this solution and adjusted to 1,000 μL with RPMI-1640 without hypoxanthine until a final 500 μg/mL concentration was reached. The P. falciparum FcB-2 (Colombia) and NF54 (The Netherlands) strains were used for assessing anti-malarial activity.
(§2) Trager and Jensen’s method was used for culturing strains [24, 25]. The methods described by Desjardins et al. [26] were used for evaluating the structural analogs’ in vitro antiplasmodial activity, with some modifications. […] 1.0 µCi/mL of [3H] hypoxanthine (MP Biomedicals, Santa Ana, CA, USA) was added to each well and the plates were then incubated for 48 h at 37 °C in 5% CO2, 5% O2 in a balanced N2 atmosphere. Parasite DNA was harvested and radioactivity was determined by automatic TDCR liquid scintillation counter plate (Chameleon, Hidex Oy, Finland). Experiments were repeated twice with two or three replicates each. A nonlinear regression sigmoidal dose-response (variable slope) model was used to estimate concentration inhibiting 50% growth (IC50) values for each derivative.
Series [3] can be described thus: Cytotoxicity, MTT colorimetric test. It counts as cell-based, human. To be noted: human.
Method: (§3) Steroidal derivatives’ cytotoxicity regarding the HepG2-A16 cell line was evaluated by colorimetric test using 3-(4,5-dimethylthiazolyl-2)-2,5-diphenyltetrazolium bromide (MTT), as described by Mosmann [28]. […] An aliquot of each derivative dilution (100 μL, 1,000, 100, 10 and 1 μg/mL) was then added to the wells in triplicate. […] The DMSO diluent agent was evaluated in complete medium and negative controls (untreated cells) were included. Absorbance was measured at 550 nm and statistical Prism software version 5.0 (GraphPad Software Inc., La Jolla, CA, USA) was used for calculating toxic concentration (CC50). Amphotericin B was used as positive control in this assay.
The test system of series [4] is Plasmodium berghei (ANKA strain). In words: Peters' 4-day suppressive test in P. berghei-infected mice. Type of series: in vivo, Plasmodium berghei in Balb/C mice. To be noted: for reduction in parasitemia: 4 daily doses.
Method: Antimalarial activity was expressed as the percentage of parasite multiplication inhibition.
Antimalarial activity was assessed in vivo in the P. berghei rodent malaria model according to Peters’ 4-day suppressive test in P. berghei-infected (ANKA strain), 5–6 week-old Balb/C mice (males and females) weighing 23 ± 5 g; parasitemia kinetics were evaluated following treatment [2]. […] The donor mice were anesthetized with a 5 mg/kg xylazine and 50 mg/kg ketamine cocktail; blood was then collected via intracardiac route and 100 uL of 5 × 10^6 P. berghei ANKA-parasitised parasitized erythrocytes per experimental mouse were inoculated. Mouse infection was checked one day later by thin smear blood test and Giemsa staining.
For series [5], the system named is Plasmodium falciparum FCB-2 (chloroquine-resistant) strain. In words: In vitro antiplasmodial activity, [3H]hypoxanthine incorporation, FCB-2 strain. It counts as cell-based. Conditions: for RI (resistance index): IC50 FCB-2 (resistant strain)/IC50 NF-54 (sensitive strain); for antiplasmodial activity (in words): P. falciparum FCB-2 and NF-54 strains, compared to diosgenone or parent.
Method: as §1, §2

The test system of series [6] is HepG2-A16 human hepatoma cells. Kind of series: Cytotoxicity, MTT colorimetric test. It counts as cell-based. To be noted: CC50 HepG2/IC50 parasite FCB-2. (In general: Formazan colour is commonly taken as a measure of viable cells.)
Method: as §3
Setting [7] is: P. falciparum NF-54 chloroquine-sensitive strain.
Setting [8] is: Plasmodium falciparum, 48 h, P. falciparum FCB-2 chloroquine-resistant strain, 48 h, read-out: IC50 μM ± SD FCB-2.

As for `C[C@@H]1CC[C@@]2(OC1)O[C@H]1C[C@H]3[C@@H]4CCC5=CC(=O)CC[C@]5(C)[C@H]4CC[C@]3(C)[C@H]1[C@@H]2C` [Compound 2, (25R)-4-Spirosten-3-one], the “antiplasmodial activity against FcB-2 chloroquine-resistant strains (in words)” value in series [1] is given as “have antiplasmodial activity”. The 50% inhibitory concentration (IC50) in series [2] (setting [7]) turned out to be 35.4 ± 2.2 µM; in series [5] (setting [8]), 27.9 ± 5.5 µM. In series [3], this compound had a CC50 at 48 h of 265 µM. Moreover, in series [4] (100 mg/kg oral), the “in vivo effect on parasites (in words)” value was “no decrease in the amount of parasites”. Also, in series [4] (100 mg/kg oral, fifth day post treatment, vehicle controls 36.0%), the “parasitaemia (parasitized erythrocytes)” value amounted to 50.0%.
With `CC1CCC2(OC1)OC1(O)CC3C4CCC56OC5C(=O)CCC6(C)C4CCC3(C)C1C2C` [Compound 14, (25R)-4,5-Epoxy-spirostan-16α-hydroxy-3-one], the melting point was in the range of 145 to 147 °C. Further, in series [2] (setting [7]), the IC50 was 8.5 ± 2.3 µM. In addition, the “SI (selectivity index)” value in series [6] is reported as 15.2. The midpoint of cytotoxicity in series [3], the CC50 at 48 h, lay at 153 µM. In series [4] (100 mg/kg oral), the reduction in parasitemia is recorded as 36.7%. The “RI (resistance index)” value in series [5] came to 1.2. Besides, in series [5] (setting [8]), the IC50 was 10.1 ± 1.3 µM.
As for `C[C@@H](CO)CCC(=O)[C@@H](C)[C@H]1[C@@H](O)CC2C3CCC4=CC(=O)CC[C@]4(C)C3CC[C@@]21C` (stereo partly drawn) [Compound 4], in series [1], the “antiplasmodial activity against FcB-2 chloroquine-resistant strains (in words)” value is “have antiplasmodial activity”. Besides, the IC50 in series [2] (setting [7]) came to 248 ± 5.3 µM; in series [5] (setting [8]) it was 223 ± 12.3 µM. In addition, the “SI (selectivity index)” value in series [6] is given as 9.6. Also, the CC50 at 48 h in series [3] amounted to 2150 µM. In addition, in series [5], the “RI (resistance index)” value is given as 0.9.
On to `C[C@@H]1CC[C@@]2(OC1)O[C@H]1C[C@H]3[C@@H]4CC(=O)C5=CC(=O)CC[C@]5(C)[C@H]4CC[C@]3(C)[C@H]1[C@@H]2C` [Compound 18, (25R)-4-Spirosten-3,6-dione], for which the melting point is 200 to 202 °C. In addition, the IC50 in series [2] (setting [7]) turned out to be 9.8 ± 1 µM. Further, the “SI (selectivity index)” value in series [6] was found to be 16.9. This compound displayed a CC50 at 48 h in series [3] of 192 µM. In addition, the reduction in parasitemia in series [4] (100 mg/kg oral) came out at 35.0%. In series [5], the “RI (resistance index)” value is recorded as 1.2 and the “antiplasmodial activity (in words)” value was “more active than diosgenone”. In addition, the IC50 in series [5] (setting [8]) came to 11.3 ± 1.6 µM.
`CCN(CC)CCCC(C)Nc1ccnc2cc(Cl)ccc12` (stereo not drawn) [CQ, chloroquine, reference compound]: the IC50 in series [2] was 0.02 ± 0.005 µM; in series [5] (Plasmodium falciparum, 48 h, read-out: IC50 μM ± SD FCB-2), 0.157 ± 0.01 µM; in series [5] (Plasmodium falciparum, read-out: IC50 in the FCB-2 strain) it was 0.158 µM. The same compound registered a reduction of parasitemia in series [4] (5 mg/kg oral, second day of treatment) of 100.0%.
Turning to `CC(=O)O[C@H]1CC2C3CCC4=CC(=O)CC[C@]4(C)C3CC[C@]2(C)[C@H]1[C@H](C)C(=O)CC[C@@H](C)CO` (stereo partly drawn) [Compound 3], in series [1], the “antiplasmodial activity against FcB-2 chloroquine-resistant strains (in words)” value was “have antiplasmodial activity”. Further, the IC50 in series [2] (setting [7]) came to 33 ± 0.8 µM; in series [5] (P. falciparum FCB-2 chloroquine-resistant strain, 48 h, read-out: IC50 μM ± SD FCB-2) it was 21.35 ± 0.2 µM; in series [5] (setting [8]), 21.4 µM. Besides, the “SI (selectivity index)” value in series [6] is 2.8. Half-maximal cytotoxicity in series [3] (CC50 at 48 h) was put at 60 µM. The “RI (resistance index)” value in series [5] stood at 0.6.
`C[C@@H]1CC[C@@]2(OC1)O[C@H]1C[C@H]3[C@@H]4CCC56OC5C(=O)CC[C@]6(C)[C@H]4CC[C@]3(C)[C@H]1[C@@H]2C` (stereo partly drawn) [Compound 10, (25R)-4,5-Epoxy-spirostan-3-one]: the melting point lay within 184 to 186 °C. For the same compound, the IC50 in series [2] (setting [7]) was 106 ± 7.7 µM. The “SI (selectivity index)” value in series [6] amounted to 1.8. In series [3], this compound returned a CC50 at 48 h of 101 µM. Also, in series [5], the “RI (resistance index)” value is reported as 0.5 and the “antiplasmodial activity (in words)” value is on record as “marginal activity compared to diosgenone”. Also, the IC50 in series [5] (setting [8]) was 56.7 ± 6.3 µM.

The term IC50 denotes the point on the concentration scale where inhibition reaches its midpoint. The CC50 is the concentration at which the toxic effect on the cells reaches its halfway point. Higher therefore signals better tolerance by the cells. A word on the melting point: it is the temperature, or range, at which the solid turns liquid.
